From patent publication US20260062422A1 (Halda Therapeutics OpCo, Inc., priority 2022, published 2026)

What was measured:
[1] = system: T-Rex 293 cell line SC3 cells lacking increased expression of androgen receptor protein; assay: Cellular growth inhibition, T-Rex 293 SC3 cells without doxycycline, CellTiter-Glo; assay type: cell-based; conditions: T-Rex 293 SC3 cells not exposed to doxycycline, CellTiter-Glo 2.0
Summary of the method: (§1)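 With DMSO (0.5%) vehicle as negative control, compounds treated SC3 cells for 72 h in medium containing charcoal-dextran FBS ± doxycycline. This T-Rex 293 clone expresses transfected wild-type AR on induction. Readout: CellTiter-Glo 2.0; GI50 by nonlinear regression.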

VCaP cells = assay: Cellular growth inhibition assay for VCaP cells, CellTiter-Glo; assay type: cell-based, human; conditions: 72 hours treatment, CellTiter-Glo 2.0
Summary of the method: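 GI50 values come from four-parameter curve fits of luminescence data normalized to a zero baseline. Compound, in medium with 0.5% DMSO, was added one day after plating and left for 72 h before CellTiter-Glo 2.0 addition.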

T47D cells = assay: Cellular growth inhibition assay for T47D cells, CellTiter-Glo; assay type: cell-based, human; conditions: 72 hours treatment, CellTiter-Glo 2.0 cell viability
Summary of the method: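 Luminescence from CellTiter-Glo 2.0 after 72 h of compound exposure gives the viability signal. Cells grew in insulin-supplemented (0.2 units/mL) DMEM with 10% FBS and were treated one day after seeding at 0.5% DMSO. GI50 values come from four-parameter nonlinear regression.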

[2] = system: T-Rex 293 cell line SC3 cells having increased expression of androgen receptor protein due to exposure to doxycycline; assay: Cellular growth inhibition, T-Rex 293 SC3 cells with doxycycline (androgen receptor induced), CellTiter-Glo; assay type: cell-based; conditions: T-Rex 293 SC3 cells with 10 ng/mL doxycycline (increased androgen receptor expression)
Summary of the method: as §1

Row | SMILES | GI50 ([1]; 72 h) | GI50 (VCaP cells; Homo sapiens, VCaP, 72 h) | GI50 (T47D cells; Homo sapiens, T47D, 72 h) | GI50 ([2]; 72 h) | GI50 ([2]; 72 hours) | GI50 ([1]; 72 hours) | GI50 (VCaP cells) | GI50 (T47D cells)
1 | Cc1sc2c(c1C)C(c1ccc([C@@H]3CC[C@]4(C3)CN(c3ncc(C(=O)N[C@H]5C(C)(C)[C@H](Oc6ccc(C#N)c(Cl)c6)C5(C)C)cn3)CCO4)cc1)=N[C@@H](Cc1ncco1)c1nnc(C)n1-2 [Compound I-405] | 500 to 1500 nM | < 500 nM | < 500 nM | < 500 nM |  |  |  | 
2 | Cc1sc2c(c1C)C(c1ccc(OCC[C@@H]3CCCN(c4ncc(C(=O)N[C@H]5C(C)(C)[C@H](Oc6ccc(C#N)c(Cl)c6)C5(C)C)cn4)C3)cc1)=N[C@@H](Cc1ncco1)c1nnc(C)n1-2 [Compound I-300] | 500 to 1500 nM | < 500 nM | < 500 nM | < 500 nM |  |  |  | 
3 | Cc1sc2c(c1C)C(c1ccc(N[C@H]3CC[C@H](CNc4ncc(C(=O)N[C@H]5C(C)(C)[C@H](Oc6ccc(C#N)c(Cl)c6)C5(C)C)cn4)CC3)cc1)=N[C@@H](Cc1ncco1)c1nnc(C)n1-2 [Compound I-649] | < 500 nM | < 500 nM | < 500 nM | < 500 nM |  |  |  | 
4 | Cc1sc2c(c1C)C(c1ccc(C(=O)N3CCC(C(=O)c4ncc(C(=O)N[C@H]5C(C)(C)[C@H](Oc6ccc(C#N)c(Cl)c6)C5(C)C)cn4)CC3)cc1)=N[C@@H](Cc1ncco1)c1nnc(C)n1-2 [Compound I-381] | > 3000 nM | > 3000 nM | > 3000 nM |  | > 3000 nM |  |  | 
5 | Cc1sc2c(c1C)C(c1ccc([C@@H]3CCN(C(=O)[C@H]4CCCN(c5ncc(C(=O)N[C@H]6C(C)(C)[C@H](Oc7ccc(C#N)c(Cl)c7)C6(C)C)cn5)C4)C3)cc1)=N[C@@H](Cc1ncco1)c1nnc(C)n1-2 [Compound I-386] | > 3000 nM | > 3000 nM | 500 to 1500 nM | > 3000 nM |  |  |  | 
6 | Cc1sc2c(c1C)C(c1ccc(CCC[C@@H]3CCCN(c4ncc(C(=O)N[C@H]5C(C)(C)[C@H](Oc6ccc(C#N)c(Cl)c6)C5(C)C)cn4)C3)cc1)=N[C@@H](C)c1nnc(C)n1-2 [Compound I-353] | > 3000 nM | > 3000 nM | > 3000 nM | < 500 nM |  |  |  | 
7 | Cc1sc2c(c1C)C(c1ccc(CCCOC3CCN(c4ncc(C(=O)N[C@H]5C(C)(C)[C@H](Oc6ccc(C#N)c(Cl)c6)C5(C)C)cn4)CC3)cc1)=N[C@H](Cc1cnccn1)c1nnc(C)n1-2 [Compound I-278] | < 500 nM | < 500 nM | < 500 nM | < 500 nM |  |  |  | 
8 | Cc1sc2c(c1C)C(c1ccc(C(C)(C)CN3CC4(CCCN(c5ncc(C(=O)NC6C(C)(C)C(Oc7ccc(C#N)c(Cl)c7)C6(C)C)cn5)C4)C3)cc1)=N[C@@H](Cc1ncco1)c1nnc(C)n1-2 (some centres unmarked) [Compound I-479] | 500 to 1500 nM | < 500 nM | 500 to 1500 nM | < 500 nM |  |  |  | 
9 | COCC[C@@H]1N=C(c2ccc(CC3CC4(CCN(c5ncc(C(=O)N[C@H]6C(C)(C)[C@H](Oc7ccc(C#N)c(Cl)c7)C6(C)C)cn5)CC4)C3)cc2)c2c(sc(C)c2C)-n2c(C)nnc21 [Compound I-585] | > 3000 nM | < 500 nM | < 500 nM | < 500 nM |  |  |  | 
10 | Cc1sc2c(c1C)C(c1ccc(C#CCC3CCN(c4ncc(C(=O)N[C@H]5C(C)(C)[C@H](Oc6ccc(C#N)c(Cl)c6)C5(C)C)cn4)CC3)cc1)=N[C@H](Cc1ncco1)c1nnc(C)n1-2 [Compound I-58] | > 3000 nM | < 500 nM | > 3000 nM | < 500 nM |  |  |  | 
11 | CC[C@@H]1N=C(c2ccc(CC3CCC4(C3)CN(c3ncc(C(=O)N[C@H]5C(C)(C)[C@H](Oc6ccc(C#N)c(Cl)c6)C5(C)C)cn3)CCO4)cc2)c2c(sc(C)c2C)-n2c(C)nnc21 (some centres unmarked) [Compound I-613] |  |  |  |  | < 500 nM | > 3000 nM | < 500 nM | 500 to 1500 nM
12 | Cc1sc2c(c1C)C(c1ccc(C[C@H]3CC[C@H]4CN(c5ncc(C(=O)N[C@H]6C(C)(C)[C@H](Oc7ccc(C#N)c(Cl)c7)C6(C)C)cn5)CCN4C3)cc1)=NC(Cc1ncco1)c1nnc(C)n1-2 (some centres unmarked) [Compound I-324] | < 500 nM | < 500 nM | < 500 nM | > 3000 nM |  |  |  | 
13 | Cc1noc2c1-c1ccccc1C(c1ccc(OC3CC4(CCN(c5ncc(C(=O)N[C@H]6C(C)(C)[C@H](Oc7ccc(C#N)c(Cl)c7)C6(C)C)cn5)CC4)C3)cc1)=N[C@H]2Cc1ncco1 [Compound I-222] | > 3000 nM | < 500 nM | > 3000 nM | < 500 nM |  |  |  | 
14 | Cc1sc2c(c1C)C(c1ccc(CN(C)C(=O)[C@@H]3CC[C@H](c4ncc(C(=O)N[C@H]5C(C)(C)[C@H](Oc6ccc(C#N)c(Cl)c6)C5(C)C)cn4)C3)cc1)=N[C@@H](Cc1ncco1)c1nnc(C)n1-2 [Compound I-371] | > 3000 nM | < 500 nM | 500 to 1500 nM | < 500 nM |  |  |  | 
15 | COCC[C@@H]1N=C(c2ccc(CC3CC4(CCN(c5ccc(C(=O)N[C@H]6C(C)(C)[C@H](Oc7ccc(C#N)c(Cl)c7)C6(C)C)cn5)CC4)C3)cc2)c2c(sc(C)c2C)-n2c(C)nnc21 [Compound I-599] | > 3000 nM | < 500 nM | < 500 nM | < 500 nM |  |  |  | 
16 | Cc1sc2c(c1C)C(c1ccc(OC3CC4(CCN(c5ncc(C(=O)N[C@H]6C(C)(C)[C@H](Oc7ccc(C#N)c(Cl)c7)C6(C)C)cn5)CC4)C3)cc1)=NC(C(F)(F)F)c1nnc(C)n1-2 (some centres unmarked) [Compound I-600] | > 3000 nM |  | > 3000 nM | > 3000 nM |  |  | > 3000 nM | 
17 | Cc1sc2c(c1C)C(c1ccc([C@H]3C[C@@H]([C@H]4CCCN(c5ncc(C(=O)N[C@H]6C(C)(C)[C@H](Oc7ccc(C#N)c(Cl)c7)C6(C)C)cn5)C4)C3)cc1)=N[C@@H](Cc1ncco1)c1nnc(C)n1-2 [Compound I-421] | > 3000 nM | < 500 nM | < 500 nM | < 500 nM |  |  |  | 
18 | Cc1sc2c(c1C)C(c1ccc([C@H]3C[C@@H]([C@@H]4CCN(c5ncc(C(=O)N[C@H]6C(C)(C)[C@H](Oc7ccc(C#N)c(Cl)c7)C6(C)C)cn5)C4)C3)cc1)=N[C@@H](Cc1ncco1)c1nnc(C)n1-2 [Compound I-413] | > 3000 nM | > 3000 nM | > 3000 nM | > 3000 nM |  |  |  | 
19 | Cc1sc2c(c1C)C(c1ccc(-c3conc3OC3CCN(c4ncc(C(=O)N[C@H]5C(C)(C)[C@H](Oc6ccc(C#N)c(Cl)c6)C5(C)C)cn4)CC3)cc1)=N[C@@H](Cc1ncco1)c1nnc(C)n1-2 [Compound I-432] | > 3000 nM | < 500 nM | > 3000 nM | < 500 nM |  |  |  | 
20 | Cc1sc2c(c1C)C(c1ccc(CNC(=O)C3CCN(c4ncc(C(=O)N[C@H]5C(C)(C)[C@H](Oc6ccc(C#N)c(Cl)c6)C5(C)C)cn4)CC3)cc1)=N[C@@H](Cc1ncco1)c1nnc(C)n1-2 [Compound I-263] | 1500 to 3000 nM | < 500 nM | < 500 nM | < 500 nM |  |  |  | 
21 | CCNC(=O)C[C@@H]1N=C(c2ccc(CN3CC4CN(c5ncc(C(=O)N[C@H]6C(C)(C)[C@H](Cc7ccc(C#N)c(Cl)c7)C6(C)C)cn5)CC4C3)cc2)c2c(sc(C)c2C)-n2c(C)nnc21 (some centres unmarked) [Compound I-94] | 500 to 1500 nM | < 500 nM | 500 to 1500 nM | < 500 nM |  |  |  | 
22 | Cc1sc2c(c1C)C(c1ccc(O[C@H]3COC4(C3)CN(c3ncc(C(=O)N[C@H]5C(C)(C)[C@H](Oc6ccc(C#N)c(Cl)c6)C5(C)C)cn3)C4)cc1)=N[C@@H](Cc1ncco1)c1nnc(C)n1-2 [Compound I-181] | < 500 nM | < 500 nM | < 500 nM | < 500 nM |  |  |  | 
23 | Cc1sc2c(c1C)C(c1ccc(C[C@H]3CC[C@@H]4CN(c5ncc(C(=O)N[C@H]6C(C)(C)[C@H](Oc7ccc(C#N)c(Cl)c7)C6(C)C)cn5)CCN4C3)cc1)=C[C@H](Cc1ncco1)c1nnc(C)n1-2 [Compound I-306] | < 500 nM | < 500 nM | < 500 nM | < 500 nM |  |  |  | 
